The results in this text go back to patent publication US10925823B2, “Synergistic antioxidant compositions” (The Procter & Gamble Company, priority 2018, dated 2021).

A short description of the test: Oxygen Radical Absorbance Capacity (ORAC) Peroxynitrite Assay. The note with it: Trolox equivalent; SIN-1 as peroxynitrite source, dihydrorhodamine-123 probe, 37° C.; FIG. 4. From the text: The ORAC assay is the most common method for assessing antioxidant activity. It is based on evaluating the capacity of a test material to protect a probe (e.g., a chromagen) from its damage by oxygen radicals (in this case, peroxynitrite). Results are expressed as micromole Trolox Equivalency per gram of the test material:
This methodology is further discussed in: “Development and validation of an improved oxygen radical absorbance capacity assay using fluorescein as the fluorescent probe.”; Ou, Boxin, Maureen Hampsch-Woodill, and Ronald L. Prior. Journal of agricultural and food chemistry 49.10 (2001): 4619-4626 incorporated herein by reference; and further in “Development and validation of oxygen radical absorbance capacity assay for lipophilic antioxidants using randomly methylated β-cyclodextrin as the solubility enhancer.”, Huang, Dejian, et al. Journal of Agricultural and Food Chemistry 50.7 (2002): 1815-1821, incorporated herein by reference.
Experimental Methodology: The ORAC Peroxynitrite measures the peroxynitrite radical. […] Dihydrorhodamine-123 is the chosen target protein, whose loss of fluorescence (with excitation at 485 nm and emission at 528 nm) is an indication of the extent of damage from its reaction with the peroxynitrite radical. […] Kinetic fluorescence profile is detected using Biotek plate reader with excitation at 485 nm and emission at 528 nm, at 37° C. […]

With `[O-]n1ccccc1=S.[O-]n1ccccc1=S.[Zn+2]` [ZPT, zinc salt of 1-hydroxy-2-pyridinethione], the “ORAC peroxynitrite antioxidant activity” value is reported as “only individual material that showed appreciable activity”.
